Measured values reported in ChEMBL document CHEMBL4680139, “Antiproliferative activity of diarylnaphthylpyrrolidine derivative via dual target inhibition” (Eur J Med Chem, 2020).
In brackets after ≈: the same amount, converted by molar mass.

Assays:
[1] = system: MDA-MB-231; experiment: Antiproliferative activity against human MDA-MB-231 cells assessed as inhibition of cell growth measured after 48 hrs by SRB assay; type: functional, cell-based; conditions: MDA-MB-231, 48 h
[2] = system: MCF7; experiment: Antiproliferative activity against human MCF-7 cells assessed as inhibition of cell growth measured after 48 hrs by SRB assay; type: functional, cell-based; conditions: MCF7, 48 h
[3] = system: THP-1; experiment: Antiproliferative activity against human THP-1 cells assessed as inhibition of cell growth measured after 48 hrs by SRB assay; type: functional, cell-based; conditions: THP-1, 48 h
[4] = system: A549; experiment: Antiproliferative activity against human A549 cells assessed as inhibition of cell growth measured after 48 hrs by SRB assay; type: functional, cell-based; conditions: A549, 48 h
[5] = system: HCT-116; experiment: Antiproliferative activity against human HCT-116 cells assessed as inhibition of cell growth measured after 48 hrs by SRB assay; type: functional, cell-based; conditions: HCT-116, 48 h
[6] = Inhibition of bovine brain tubulin polymerisation measured by turbidometric method; type: tissue-based, Bos taurus
[7] = system: MDA-MB-231; experiment: Induction of apoptosis in human MDA-MB-231 cells assessed as proportion of early apoptotic cells at 1 ug measured after 24 hrs by Annexin V-FITC/propidium iodide staining based flow cytometry (reference value: 0.2%); type: functional; conditions: dose 1 µg
[8] = system: MDA-MB-231; experiment: Induction of apoptosis in human MDA-MB-231 cells assessed as proportion of necrotic cells at 1 ug measured after 24 hrs by Annexin V-FITC/propidium iodide staining based flow cytometry (reference value: 0.2%); type: functional; conditions: dose 1 µg
[9] = system: MDA-MB-231; experiment: Induction of apoptosis in human MDA-MB-231 cells assessed as proportion of viable cells at 1 ug measured after 24 hrs by Annexin V-FITC/propidium iodide staining based flow cytometry (reference value: 99%); type: functional; conditions: dose 1 µg
[10] = system: MDA-MB-231; experiment: Induction of apoptosis in human MDA-MB-231 cells assessed as proportion of late apoptotic cells at 1 ug measured after 24 hrs by Annexin V-FITC/propidium iodide staining based flow cytometry (reference value: 0.5%); type: functional; conditions: dose 1 µg
[11] = system: MCF7; experiment: Antiproliferative activity against human MCF-7 cells assessed as inhibition of colony formation measured after 3 weeks by crystal violet staining based soft agar colony formation assay; type: functional, cell-based; conditions: MCF7, 504 h
[12] = molecular target: DNA topoisomerase 2-alpha (Homo sapiens) (UniProt P11388); experiment: Inhibition of DNA-topoisomerase 2 in human MCF7 cells using kinetoplast DNA as substrate at 120 uM measured by ELISA; type: cell-based
Sequence of DNA topoisomerase 2-alpha (Homo sapiens) (P11388 whole entry): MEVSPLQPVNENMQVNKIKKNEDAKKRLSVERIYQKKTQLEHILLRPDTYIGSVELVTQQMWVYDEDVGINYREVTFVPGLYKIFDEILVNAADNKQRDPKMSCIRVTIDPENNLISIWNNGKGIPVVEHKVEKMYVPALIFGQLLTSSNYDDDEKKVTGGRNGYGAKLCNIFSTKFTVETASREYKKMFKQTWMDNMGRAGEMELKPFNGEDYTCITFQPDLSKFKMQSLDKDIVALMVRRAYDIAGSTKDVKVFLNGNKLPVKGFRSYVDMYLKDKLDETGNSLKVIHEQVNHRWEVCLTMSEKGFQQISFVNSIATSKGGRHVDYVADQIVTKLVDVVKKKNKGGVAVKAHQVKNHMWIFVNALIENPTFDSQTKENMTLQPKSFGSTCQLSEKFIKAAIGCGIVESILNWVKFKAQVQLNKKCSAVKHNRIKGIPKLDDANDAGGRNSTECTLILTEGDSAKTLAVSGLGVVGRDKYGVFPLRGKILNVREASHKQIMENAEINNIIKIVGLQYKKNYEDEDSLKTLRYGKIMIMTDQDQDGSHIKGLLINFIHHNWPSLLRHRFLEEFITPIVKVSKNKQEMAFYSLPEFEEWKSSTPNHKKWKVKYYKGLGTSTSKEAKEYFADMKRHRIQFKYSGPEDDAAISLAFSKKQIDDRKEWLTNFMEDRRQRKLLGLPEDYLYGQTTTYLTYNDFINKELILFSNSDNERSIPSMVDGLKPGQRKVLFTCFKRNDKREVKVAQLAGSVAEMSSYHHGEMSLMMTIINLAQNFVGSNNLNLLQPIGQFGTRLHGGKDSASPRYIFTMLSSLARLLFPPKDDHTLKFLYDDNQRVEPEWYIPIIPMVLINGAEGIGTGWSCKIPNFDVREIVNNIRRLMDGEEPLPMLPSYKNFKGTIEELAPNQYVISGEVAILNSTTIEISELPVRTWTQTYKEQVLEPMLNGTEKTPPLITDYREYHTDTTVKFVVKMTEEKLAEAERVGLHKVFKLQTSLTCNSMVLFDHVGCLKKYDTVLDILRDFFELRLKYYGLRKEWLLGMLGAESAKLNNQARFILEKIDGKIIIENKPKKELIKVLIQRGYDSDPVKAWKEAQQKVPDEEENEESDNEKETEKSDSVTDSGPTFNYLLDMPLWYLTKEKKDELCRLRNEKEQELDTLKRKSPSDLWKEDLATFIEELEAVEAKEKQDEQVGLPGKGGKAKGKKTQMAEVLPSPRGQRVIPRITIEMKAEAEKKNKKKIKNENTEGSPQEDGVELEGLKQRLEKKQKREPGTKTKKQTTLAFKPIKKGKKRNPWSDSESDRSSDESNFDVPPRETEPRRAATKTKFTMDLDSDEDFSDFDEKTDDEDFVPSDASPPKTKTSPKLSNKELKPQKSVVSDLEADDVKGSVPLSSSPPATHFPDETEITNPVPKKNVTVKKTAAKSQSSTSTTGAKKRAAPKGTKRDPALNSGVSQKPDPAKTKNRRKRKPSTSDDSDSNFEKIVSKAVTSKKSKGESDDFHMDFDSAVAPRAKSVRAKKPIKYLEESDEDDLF

Compound | IC50 ([1]; read-out: IC50) [µM] | IC50 [2] [µM] | IC50 [3] [µM] | IC50 [4] [µM] | IC50 [5] [µM] | IC50 [6] [µM] | IC50 [1] [µM] | Activity [7] [%] | Activity [8] [%] | Activity [9] [%] | Activity [10] [%] | IC50 [11] [mg/L] | inhibition [12] [%]
COc1ccc(/C(=N/OC(C)=O)c2cccc3ccccc23)c(OC)c1OC | 17 | > 20 | > 20 | 17.2 | 4.98 | – | – | – | – | – | – | – | –
COc1ccc(/C(=C/c2ccc(C)cc2)c2cccc3ccccc23)c(OC)c1OC | 8.31 | > 20 | > 20 | 19.6 | > 20 | – | – | – | – | – | – | – | –
COc1ccc(C(OCCN(C)C)c2cccc3ccccc23)c(OC)c1OC (stereo unspecified) | > 20 | 11.1 | > 20 | 17.9 | > 20 | – | – | – | – | – | – | – | –
CCN(CC)CCOc1ccc(C(c2ccc(OC)c(OC)c2OC)c2cccc3ccccc23)cc1 (stereo unspecified) | 15.6 | 15.5 | 13.9 | 11.5 | 8.34 | – | – | – | – | – | – | – | –
COc1ccc(C(c2ccc(OCCN3CCCCC3)cc2)c2cccc3ccccc23)c(OC)c1OC (stereo unspecified) | 15.2 | 15.4 | 16.6 | 15 | 11.9 | – | – | – | – | – | – | – | –
COc1ccc(C(c2ccccc2O)c2cccc3ccccc23)c(OC)c1OC (stereo unspecified) | 17.7 | 16.6 | > 20 | 13.6 | > 20 | – | – | – | – | – | – | – | –
COc1ccc(C(c2ccc(OCCN(C)C)cc2)c2cccc3ccccc23)c(OC)c1OC (stereo unspecified) | 14.3 | 15.2 | 7.95 | 10.2 | 3.3 | – | – | – | – | – | – | – | –
COc1ccc(/C(=N/O)c2cccc3ccccc23)c(OC)c1OC | 2.5 | > 20 | > 20 | 13.1 | 5.88 | 5.58 | – | – | – | – | – | – | –
COc1ccc(/C(=C/c2ccc(F)cc2)c2cccc3ccccc23)c(OC)c1OC | > 20 | 10.5 | 18.9 | 18.6 | > 20 | – | – | – | – | – | – | – | –
CCOC(=O)CCO/N=C(/c1ccc(OC)c(OC)c1OC)c1cccc2ccccc12 | 15.2 | > 20 | > 20 | 19.6 | 10 | – | – | – | – | – | – | – | –
COc1ccc(C(c2ccccc2OCCN2CCCCC2)c2cccc3ccccc23)c(OC)c1OC (stereo unspecified) | 7.18 | 12.4 | 19.1 | 9.86 | 4.63 | – | – | – | – | – | – | – | –
CCOC(=O)/C=C/CO/N=C(/c1ccc(OC)c(OC)c1OC)c1cccc2ccccc12 | > 20 | > 20 | > 20 | 14 | > 20 | – | – | – | – | – | – | – | –
COc1ccc(C(OCc2ccc(C)cc2)c2cccc3ccccc23)c(OC)c1OC (stereo unspecified) | > 20 | 10.7 | > 20 | 15.7 | > 20 | – | – | – | – | – | – | – | –
C=CCOC(c1ccc(OC)c(OC)c1OC)c1cccc2ccccc12 (stereo unspecified) | > 20 | > 20 | > 20 | 9.71 | > 20 | – | – | – | – | – | – | – | –
COc1ccc(C(O)(Cc2ccc(F)cc2)c2cccc3ccccc23)c(OC)c1OC (stereo unspecified) | 5.44 | 7.56 | 5.86 | 5.94 | > 20 | – | – | – | – | – | – | – | –
CCOC(=O)C(C)C(O)(c1ccc(OC)c(OC)c1OC)c1cccc2ccccc12 (stereo unspecified) | > 20 | > 20 | > 20 | 4 | > 20 | – | – | – | – | – | – | – | –
COc1ccc(C(c2ccc(O)cc2)c2cccc3ccccc23)c(OC)c1OC (stereo unspecified) | 17.4 | 17.5 | 9.45 | 16.4 | 16 | – | – | – | – | – | – | – | –
COc1cccc2c1C(=O)c1c(O)c3c(c(O)c1C2=O)C[C@@](O)(C(=O)CO)C[C@@H]3O[C@H]1C[C@H](N)[C@H](O)[C@H](C)O1 [DOXORUBICIN] | – | – | – | 0.63 | – | – | 5.12 | 0.1 | 80.1 | 13.7 | 6.2 | – | –

Compound | IC50 ([1]; read-out: IC50) [µM] | IC50 [2] [µM] | IC50 [3] [µM] | IC50 [4] [µM] | IC50 [5] [µM] | IC50 [6] [µM] | IC50 [1] [µM] | Activity [7] [%] | Activity [8] [%] | Activity [9] [%] | Activity [10] [%] | IC50 [11] [mg/L] | inhibition [12] [%]
COc1ccc(C(c2ccc(OCC(=O)O)cc2)c2cccc3ccccc23)c(OC)c1OC (stereo unspecified) | > 20 | > 20 | > 20 | 16.4 | 5.02 | – | – | – | – | – | – | – | –
COc1ccc(C(c2ccc(OCCO)cc2)c2cccc3ccccc23)c(OC)c1OC (stereo unspecified) | > 20 | > 20 | 16.6 | > 20 | > 20 | – | – | – | – | – | – | – | –
COc1ccc(C(c2ccc(OCCN3CCCC3)cc2)c2cccc3ccccc23)c(OC)c1OC (stereo unspecified) | 14.4 | 15.3 | 5.4 | 15.8 | 10.8 | – | – | – | – | – | – | – | –
COC(=O)c1ccc(COC(c2ccc(OC)c(OC)c2OC)c2cccc3ccccc23)cc1 (stereo unspecified) | > 20 | > 20 | > 20 | 12 | > 20 | – | – | – | – | – | – | – | –
CCOC(=O)CO/N=C(/c1ccc(OC)c(OC)c1OC)c1cccc2ccccc12 | 16.4 | > 20 | > 20 | 6.72 | 3.36 | – | – | – | – | – | – | – | –
COc1ccc(C(O)(C/C=C\c2ccccc2)c2cccc3ccccc23)c(OC)c1OC (stereo unspecified) | 12.8 | 10.2 | 19.4 | 17.6 | > 20 | – | – | – | – | – | – | – | –
COc1cc(COC(c2ccc(OC)c(OC)c2OC)c2cccc3ccccc23)cc(OC)c1 (stereo unspecified) | > 20 | > 20 | > 20 | 17.5 | > 20 | – | – | – | – | – | – | – | –
COc1ccc(C(O)(Cc2ccccc2)c2cccc3ccccc23)c(OC)c1OC (stereo unspecified) | 4.78 | 10.6 | 12.4 | > 20 | > 20 | 6.02 | – | – | – | – | – | – | –
COc1ccc(C(OCc2ccccc2)c2cccc3ccccc23)c(OC)c1OC (stereo unspecified) | > 20 | 14.1 | > 20 | 13.5 | > 20 | – | – | – | – | – | – | – | –
COc1ccc(C(c2ccc(OC(C)CN(C)C)cc2)c2cccc3ccccc23)c(OC)c1OC (stereo unspecified) | 4.34 | 13.1 | 15 | 11.4 | 8.41 | – | – | – | – | – | – | – | –
CC/C(=C(\c1ccccc1)c1ccc(OCCN(C)C)cc1)c1ccccc1 [TAMOXIFEN] | > 20 | – | 11.9 | 10.1 | 45 | – | – | – | – | – | – | 1.31 (≈ 3.53 µM) | –
C=CCC(O)(c1ccc(OC)c(OC)c1OC)c1cccc2ccccc12 (stereo unspecified) | > 20 | > 20 | > 20 | 10.7 | > 20 | – | – | – | – | – | – | – | –
COc1ccc(/C(=N/OCC(=O)O)c2cccc3ccccc23)c(OC)c1OC | > 20 | > 20 | > 20 | 17.2 | 4.98 | – | – | – | – | – | – | – | –
COc1ccc(C(O)(Cc2ccc(C)cc2)c2cccc3ccccc23)c(OC)c1OC (stereo unspecified) | > 20 | > 20 | > 20 | 18.7 | > 20 | – | – | – | – | – | – | – | –
C=C(c1ccc(OC)c(OC)c1OC)c1cccc2ccccc12 | 4.66 | 11.7 | 12.5 | 19.8 | > 20 | 9.03 | – | – | – | – | – | – | –
COc1cc([C@@H]2c3cc4c(cc3[C@H](O)[C@H]3COC(=O)[C@H]23)OCO4)cc(OC)c1OC [PODOFILOX] | 5.73 | 10.9 | 19.6 | 7.34 | > 20 | 0.72 | – | – | – | – | – | – | 26.9
COc1ccc(/C(=C\c2ccc(F)cc2)c2cccc3ccccc23)c(OC)c1OC | 16.2 | 17.7 | 9.08 | > 20 | > 20 | – | – | – | – | – | – | – | –
